From US20240391900A1, “RIP1 KINASE INHIBITOR AND USE THEREOF” (SIRONAX (BEIJING) CO., LTD., priority 2021, published 2024)

Experiments:
[1] = tested on: HT-29 human colon cancer cells; assay: In vitro biological activity assay: inhibition of TNFα/SmacM/Z_VAD FMK-induced programmed necrosis, CellTiter-Glo viability; format: cell-based; details: HT-29 cells, necrosis induced with TNF-α 100 ng/mL, SmacM 100 nM, Z_VAD-FMK 10 μM, overnight, cell viability by chemiluminescence
Method: In order to verify the inhibitory effect of the compounds of the present disclosure on programmed necrosis at the cellular level, a type of cells closely related to the RIP1 pathway, namely HT-29 human colon cancer cells, were selected. The used activation mode is a combination of tumor necrosis factor (TNFα), cysteine aspartate activator mimic (SmacM) and pan-caspase inhibitor Z_VAD FMK, and the cell viability was calculated by detecting chemiluminescence values, thus obtaining the biological activity of the compound inhibiting the programmed necrosis of cells.
Cell line: HT-29 (ATCC® HTB-38™)
• 2.1. The Growth Status of HT-29 Cells was Regularly Checked to Ensure their Normal Growth. • 2.2. McCOY's 5A culture medium containing 10% FBS was preheated in a 37° C. water bath for 30 minutes. When the culture medium was ready for use, the cell passage and inoculation was performed in a Class II safety cabinet with aseptic technique. • 2.3. In a T75 culture flask, when the growth density of cells reached the abundance of approximately 80%, the culture medium was aspirated and cells were washed twice with pre-warmed PBS. • 2.4. 2-3 mL of trypsin (Gibco, catalog number 25200-056) was added and the T75 culture flask was transferred to a 37° C. incubator. • 2.5. After 3-5 minutes, the side of the culture flask was tapped and examined under a microscope for detachment of the cells to the flask. If necessary, the cells were placed back into the incubator to wait for another 5-10 minutes until 85% of the cells were detached from each other. • 2.6. 6-9 mL of complete cell culture medium was quickly added to terminate the trypsin reaction, and then the cells were transferred to a sterile 15 mL centrifuge tube. The cells were pelleted by centrifugation at 300 g for 5-7 minutes in a centrifuge, and then the supernatant was decanted. • 2.7. The cells were resuspended in 10 mL of fresh cell culture medium and the cells were counted by using a hemocytometer. • 2.8. 3,000 cells contained in 100 μL were inoculated into each well of a sterile 96-well cell culture plate (Corning 3903) and cultured overnight at 37° C. under 5% CO2.
• 3.1. All batches of compounds were dissolved in dimethyl sulfoxide (DMSO) to prepare a 20 mM stock. • 3.2. 3 μL of 20 mM stock of each compound was added to 27 μL of DMSO and mixed thoroughly, and then diluted at a dilution ratio of […] (20 μL compound+40 μL DMSO) until the 10-12 points ended. After the compounds were diluted, they were set aside for use. • 3.3. The cell culture plate was taken out from the incubator, washed once with PBS, and replaced with a fresh culture medium free of serum. A mixture of TNF-α (100 ng/mL), SMAC mimic (SmacM, 100 nM) and Z_VAD-FMK (10 μM) was added to induce the programmed necrosis in HT-29 cells. • 3.4. The compound dilution plate was prepared, 0.5 μL of the diluted compound was added to the corresponding 96-well plate, and mixed gently. Two duplicate wells were prepared for each compound. • 3.5. The treated 96-well plate to which the compounds had been added was placed back into the 37° C. incubator containing 5% CO2 and incubated overnight.
The luminescence cell viability detection kit was used to calculate the activity of the compound by measuring the ATP content in viable cells. • 4.1. The CellTiter-Glo® buffer and dry powdered substrate were equilibrated to room temperature before use. • 4.2. The CellTiter-Glo® substrate was resuspended with Cell Titer-Glo® buffer, then homogeneously mixed by gently vortexing. • 4.3. The cell culture plate was taken out and equilibrated at room temperature for 10 minutes (usually not suitable if more than 30 minutes). • 4.4. 20 μL of enzyme/substrate mixture was added into the 96-well assay plate with a multi-channel pipettor. • 4.5. The 96-well assay plate was placed on a shaker and the content was mixed for 2-3 minutes to promote the cell lysis. • 4.6. […]

[2] = Rapid brain distribution assay (LC-MS/MS, brain tissue/plasma ratio); format: in vivo; details: mouse, ip, CD1 mice, intraperitoneal, grouped compounds, brain tissue and plasma taken one hour after administration, read-out: B/P
Method: The contents in plasma and tissue samples were measured by LC-MS/MS to obtain the ratio of the concentration in the brain tissue sample to that in the plasma sample, and compounds with blood-brain penetration could be quickly screened.
• 3.1. A group of compounds (usually 3-4 compounds, the molecular weight difference between each other was greater than 5), weighing 1-2 mg of each compound, were added into the same 4 mL weighing bottle. • 3.2. A mixed solvent of 10% DMSO+20% polyethylene glycol-15-hydroxystearate+70% H2O was used to prepare each group to a volume of 1.5 mL-2 mL. • 3.3. The mixture was ultrasonically vortexed until a homogeneous solution was obtained for intraperitioneal administration.
• 4.1. Three CD1 mice were prepared for each group and weighed. • 4.2. The administration volume was 10 mL/kg, and the mice were administered intraperitoneally. • 4.3. Timing was started after administration, and plasma samples and brain tissue samples were taken one hour later. • 4.4. The brain tissue sample was weighed, and then 4 fold volume of physiological saline was added. The resulting mixture was homogenized, and frozen at −20° C. until analysis.
• 5.1. The exact molecular weight of a compound was found from the compound information table. • 5.2. The corresponding parent ions and fragment ions were found, and the mass spectrometry condition and the liquid phase (chromatography) method were optimized to find the appropriate condition and method.
• 6.1. Plasma sample (5-fold dilution): 10 μL of the plasma sample was taken, and 40 μL of the blank plasma sample and 50 μL of the corresponding blank tissue sample were added. • 6.2 Tissue sample processing: 50 μL of the tissue sample (brain, kidney, liver and the like) was taken, and 50 μL of the blank plasma sample was added. • 6.3. The above tissue sample and the diluted plasma sample were taken, and 500 μL of the internal standard solution was added to precipitate the protein. The resulting mixture was vortexed for 2 minutes, stored by freezing at −20° C. for 1 hour and centrifuged at 3800 rpm for 15 minutes at 4° C. The supernatant was taken, 5-fold diluted with 50% MeOH, and then vortexed for 2 minutes, ready for measurement.
The sample was detected by using an appropriate LC-MS/MS method.
Distribution ratio of tissue/plasma=(peak area of compound in tissue/peak area of internal standard)/(peak area of compound in plasma/peak area of internal standard)

[3] = in vivo; cited from earlier work
human U937 cells = details: read-out: IC50, blocking programmed necrosis; cited from earlier work
mouse L929 cells = details: read-out: IC50, blocking programmed necrosis; cited from earlier work
TNF-induced shock model = details: mice; cited from earlier work

Kp at 1 h [2] | Structure (SMILES) | EC50 [1] [nM] | also measured
2.45 | Cc1ncc(C#Cc2cnc(N)nc2)cc1-n1cc2c(n1)C(c1ccccc1)CC2 (stereo not shown) [Compound 42, 5-((6-methyl-5-(6-phenyl-5,6-dihydrocyclopenta[c]pyrazol-2 (4H)-yl)pyridin-3-yl)ethynyl)pyrimidin-2-amine] | ≤ 100 | 
3.25 | Cn1cc(C#Cc2cnc(N)nc2)cc(-n2cc3c(n2)C(c2ccccc2)CC3)c1=O (stereo not shown) [Compound 44] | ≤ 100 | 
2.28 | Nc1ncc(C#Cc2cncc(-n3cc4c(n3)C(c3cccc(F)c3)CC4)c2)cn1 (stereo not shown) [Compound 45] | ≤ 100 | 
2.46 | Nc1ncc(C#Cc2cncc(-n3cc4c(n3)C(c3ccccc3)OC4)c2)cn1 (stereo not shown) [Compound 51, 5-(5-(6-phenyl-4H-furo[3,4-c]pyrazol-2 (6H)-yl)pyridin-3-ethynyl)pyrimidin-2-amine] | ≤ 100 | 
1.1 | Nc1ncc(C#Cc2cncc(-n3nc4n(c3=O)CCC4c3ccccc3)c2)cn1 (stereo not shown) [Compound 52, 2-(5-((2-aminopyrimidin-5-yl)ethynyl)pyridin-3-yl)-7-phenyl-2,5,6,7-tetrahydro-3H-pyrrolo[2,1-c][1,2,4]triazole-3-one] | ≤ 100 | 
1.44 | Nc1ncc(C#Cc2cncc(-n3nc4c(n3)C(c3ccccc3)CC4)c2)cn1 (stereo not shown) [Compound 54, 5-((5-(4-phenyl-5,6-dihydrocyclopenta[d][1,2,3]triazol-2 (4H)-yl)pyridine-3-yl)ethynyl)pyrimidin-2-amine] | ≤ 100 | 
2.61 | Nc1ncc(C#Cc2cncc(-n3nc4c(n3)[C@H](c3ccccc3)CC4)c2)cn1 [Compound 55, (S)-5-((5-(4-phenyl-5,6-dihydrocyclopenta[d][1,2,3]triazol-2 (4H)-yl)pyridin-3-yl)ethynyl)pyrimidin-2-amine] | ≤ 100 | 
1.2 | Nc1ncc(C#Cc2cncc(-n3nc4c(n3)[C@@H](c3ccccc3)CC4)c2)cn1 [Compound 56, (R)-5-((5-(4-phenyl-5,6-dihydrocyclopenta[d][1,2,3]triazol-2 (4H)-yl)pyridin-3-yl)ethynyl)pyrimidin-2-amine] | > 1000 | 
2.16 | Cn1c(-n2nc3c(n2)C(c2ccccc2)CC3)cc(C#Cc2cnc(N)nc2)cc1=O (stereo not shown) [Compound 57, 4-((2-aminopyrimidin-5-yl)ethynyl)-1-methyl-6-(4-phenyl-5,6-dihydrocyclopenta[d][1,2,3]triazol-2 (4H)-yl)pyridine-2 (1H)-one] | ≤ 100 | 
2.93 | Cc1ncc(C#Cc2cnc(N)nc2)cc1-n1nc2c(n1)C(c1ccccc1)CC2 (stereo not shown) [Compound 58, 5-((6-methyl-5-(4-phenyl-5,6-dihydrocyclopenta[d][1,2,3]triazol-2 (4H)-yl)pyridin-3-yl)ethynyl)pyrimidin-2-amine] | ≤ 100 | 
1.17 | Nc1ncc(CCc2cncc(-n3cc4c(n3)[C@H](c3ccccc3)CC4)c2)cn1 [Compound 61, (S)-5-(2-(5-(6-phenyl-5,6-dihydrocyclopenta[c]pyrazol-2 (4H)-yl)pyridin-3-yl)ethyl)pyrimidin-2-amine] | ≤ 100 | 
0.388 | Cn1c(-n2nc3c(n2)C(c2cccnc2)CC3)cc(C#Cc2cnc(N)nc2)cc1=O (stereo not shown) [Compound 62] | ≤ 100 | 
3.77 | Nc1ncc(C#Cc2cncc(-n3nc4c(n3)C(c3cc(F)cc(F)c3)CC4)c2)cn1 (stereo not shown) [Compound 63, 5-((5-(4-(3,5-difluorophenyl)-5,6-dihydrocyclopenta[d][1,2,3]triazol-2 (4H)-yl)pyridin-3-yl)ethynyl)pyrimidin-2-amine] | ≤ 100 | 
1.12 | Cn1c(-n2nc3c(n2)C(C2CCCCC2)CC3)cc(C#Cc2cnc(N)nc2)cc1=O (stereo not shown) [Compound 65, 4-((2-aminopyrimidin-5-yl)ethynyl)-6-(4-cyclohexyl-5,6-dihydrocyclopenta[d][1,2,3]triazol-2 (4H)-yl)-1-methylpyridin-2 (1H)-one] | ≤ 100 | 
3.62 | Cc1ncc(C#Cc2cn[nH]c2)cc1-n1nc2c(n1)C(c1ccccc1)CC2 (stereo not shown) [Compound 66, 2-(5-((1H-pyrazole-4-yl)ethynyl)-2-methylpyridin-3-yl)-4-phenyl-2,4,5,6-tetrahydrocyclopenta[d][1,2,3]triazole] | ≤ 100 | 
 | CN1C(=O)[C@@H](NC(=O)c2nnc(Cc3ccccc3)[nH]2)COc2ccccc21 [GSK2982772] |  | brain tissue distribution [3]: low brain tissue distribution
 | CC(C)(C)C(=O)N1N=CC[C@H]1c1ccccc1 [GSK′963] |  | IC50 (human U937 cells): 4 nM; IC50 (mouse L929 cells): 1 nM; effect on hypothermia (TNF-induced shock model): effectively inhibit hypothermia
